{"source": "ChEMBL document CHEMBL4420080", "about": "“Inhibitors of sox18 protein activity for treating angiogenesis- and/or lymphangiogenesis-related diseases” (2018)", "key": {"[1]": {"target": "Adenosine receptor A2a (Homo sapiens) (UniProt P29274)", "sequence (P29274 whole entry)": "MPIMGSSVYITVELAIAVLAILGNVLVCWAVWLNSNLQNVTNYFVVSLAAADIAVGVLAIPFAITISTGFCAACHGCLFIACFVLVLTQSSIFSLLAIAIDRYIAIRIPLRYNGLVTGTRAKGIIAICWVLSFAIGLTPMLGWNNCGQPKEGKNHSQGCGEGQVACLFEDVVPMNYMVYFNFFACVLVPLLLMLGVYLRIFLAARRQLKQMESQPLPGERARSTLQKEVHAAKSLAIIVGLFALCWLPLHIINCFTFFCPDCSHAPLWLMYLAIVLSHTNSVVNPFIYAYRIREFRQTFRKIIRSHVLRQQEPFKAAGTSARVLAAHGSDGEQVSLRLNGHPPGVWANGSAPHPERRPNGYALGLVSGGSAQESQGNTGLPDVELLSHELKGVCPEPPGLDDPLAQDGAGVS", "experiment": "Inhibition of human adenosine A2A receptor at 10 uM relative to control"}, "[2]": {"target": "Acetylcholine receptor subunit alpha (Homo sapiens) (UniProt P02708)", "experiment": "Inhibition of human nAChR alpha1 channel at 10 uM relative to control"}, "[3]": {"system": "4T1.2", "experiment": "Antitumor activity against mouse 4T1.2 cells implanted in BALB/c mouse assessed as reduction in mean number of lung metastases at 25 mg/kg/day for 10 days measured at day 28 after tumor inoculation relative to control", "assay_type": "functional", "set-up": "scale not given: the % may be the effect or the level left"}, "[4]": {"target": "GABA-A receptor; anion channel (Rattus norvegicus) (UniProt O09028+P15431+P18506+P18508+P19969+P20236+P23574+P23576+P28471+P28473+P30191+P62813+P63079+P63138+Q91ZM7+Q9ES14)", "experiment": "Inhibition of rat GABAA channel muscimol binding site at 10 uM relative to control", "assay_type": "protein-complex assay"}, "[5]": {"target": "L-type calcium channel (Rattus norvegicus, UniProt P22002+P27732+Q02485)", "experiment": "Inhibition of rat L-type calcium channel at 10 uM relative to control", "assay_type": "protein assay"}, "[6]": {"target": "Alpha-1A adrenergic receptor (Rattus norvegicus) (UniProt P43140)", "sequence (P43140 whole entry)": "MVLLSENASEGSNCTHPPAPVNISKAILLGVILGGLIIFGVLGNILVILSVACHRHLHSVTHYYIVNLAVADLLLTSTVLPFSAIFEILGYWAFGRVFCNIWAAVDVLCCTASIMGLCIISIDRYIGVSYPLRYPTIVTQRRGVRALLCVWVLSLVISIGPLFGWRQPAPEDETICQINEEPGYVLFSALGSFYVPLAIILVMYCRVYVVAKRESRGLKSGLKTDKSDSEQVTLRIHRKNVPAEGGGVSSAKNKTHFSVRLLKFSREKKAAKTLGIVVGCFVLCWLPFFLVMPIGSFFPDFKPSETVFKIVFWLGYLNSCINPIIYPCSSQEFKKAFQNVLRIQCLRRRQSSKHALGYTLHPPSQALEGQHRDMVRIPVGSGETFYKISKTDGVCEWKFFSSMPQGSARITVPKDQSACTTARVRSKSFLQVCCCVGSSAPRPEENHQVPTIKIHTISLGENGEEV", "experiment": "Inhibition of rat adrenergic alpha1A receptor at 10 uM relative to control"}, "[7]": {"target": "Histone-lysine N-methyltransferase EZH2 (Homo sapiens) (UniProt Q15910)", "experiment": "Inhibition of EZH2 in HUVEC assessed as reduction of EZH2 transcriptional activity by genome-wide RNA-seq and ChlP-seq analysis", "assay_type": "cell-based"}, "[8]": {"system": "4T1.2", "experiment": "Antitumor activity against mouse 4T1.2 cells implanted in BALB/c mouse undergoing sham surgery without excising tumor on day 12 assessed as effect on mouse survival at 25 mg/kg/day for 10 days", "assay_type": "functional, organism-based"}, "[9]": {"target": "Transcriptional repressor CTCF (Homo sapiens) (UniProt P49711)", "sequence (P49711 whole entry)": "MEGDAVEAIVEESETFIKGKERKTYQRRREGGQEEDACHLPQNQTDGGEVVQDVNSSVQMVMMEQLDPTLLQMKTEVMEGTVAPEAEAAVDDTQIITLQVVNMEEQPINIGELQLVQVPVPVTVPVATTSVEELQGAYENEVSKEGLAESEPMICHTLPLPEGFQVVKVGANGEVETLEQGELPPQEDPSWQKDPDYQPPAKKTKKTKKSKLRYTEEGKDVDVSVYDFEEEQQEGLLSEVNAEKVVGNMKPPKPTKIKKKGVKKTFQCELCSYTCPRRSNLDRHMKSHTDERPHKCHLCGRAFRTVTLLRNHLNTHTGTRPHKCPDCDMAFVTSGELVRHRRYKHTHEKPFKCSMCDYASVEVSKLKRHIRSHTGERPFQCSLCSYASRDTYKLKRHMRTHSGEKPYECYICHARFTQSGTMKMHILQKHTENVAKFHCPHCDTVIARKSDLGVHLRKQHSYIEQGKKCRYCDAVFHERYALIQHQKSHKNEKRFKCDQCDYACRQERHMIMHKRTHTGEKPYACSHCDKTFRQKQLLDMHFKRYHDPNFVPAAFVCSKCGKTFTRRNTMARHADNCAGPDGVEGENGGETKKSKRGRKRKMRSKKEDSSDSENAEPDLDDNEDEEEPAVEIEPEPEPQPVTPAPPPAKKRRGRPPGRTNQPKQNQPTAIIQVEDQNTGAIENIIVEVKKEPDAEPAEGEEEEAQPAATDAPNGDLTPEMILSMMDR", "experiment": "Inhibition of CTCF in HUVEC assessed as reduction of CTCF transcriptional activity by genome-wide RNA-seq and ChlP-seq analysis", "assay_type": "cell-based"}, "[10]": {"system": "4T1.2", "experiment": "Antitumor activity against mouse 4T1.2 cells implanted in BALB/c mouse assessed as median disease latency time at 5 to 50 mg/kg/day for 10 days and measured up to 60 days after tumor inoculation", "assay_type": "functional, organism-based"}, "[11]": {"target": "Thyroid Hormone Receptor (Rattus norvegicus) (UniProt P18113+P63059)", "experiment": "Inhibition of rat thyroid hormone receptor at 10 uM relative to control", "assay_type": "protein assay"}, "[12]": {"system": "4T1.2", "experiment": "Inhibition of tumor induced vascular response in mouse 4T1.2 cells implanted BALB/c mouse assessed as reduction in number of endothelial cells in tumor region at 25 mg/kg/day for 10 days by ERG/EMCN-detection based immunofluorescent staining relative to control", "assay_type": "functional", "details": "4T1.2, 240 h"}, "[13]": {"experiment": "Critical micellar concentration of the compound", "assay_type": "physicochemical"}, "[14]": {"target": "hERG (KCNH2) (Homo sapiens, UniProt Q12809)", "experiment": "Inhibition of human ERG at 10 uM relative to control"}, "[15]": {"target": "Protein max (Homo sapiens) (UniProt P61244)", "sequence (P61244 whole entry)": "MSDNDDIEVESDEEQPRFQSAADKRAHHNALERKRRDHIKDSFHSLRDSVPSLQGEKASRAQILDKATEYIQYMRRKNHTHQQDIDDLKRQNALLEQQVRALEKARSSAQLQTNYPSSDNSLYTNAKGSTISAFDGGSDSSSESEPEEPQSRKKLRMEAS", "experiment": "Inhibition of MAX in HUVEC assessed as reduction of MAX transcriptional activity by genome-wide RNA-seq and ChlP-seq analysis", "assay_type": "cell-based"}, "[16]": {"target": "Alpha-1B adrenergic receptor (Rattus norvegicus) (UniProt P15823)", "sequence (P15823 whole entry)": "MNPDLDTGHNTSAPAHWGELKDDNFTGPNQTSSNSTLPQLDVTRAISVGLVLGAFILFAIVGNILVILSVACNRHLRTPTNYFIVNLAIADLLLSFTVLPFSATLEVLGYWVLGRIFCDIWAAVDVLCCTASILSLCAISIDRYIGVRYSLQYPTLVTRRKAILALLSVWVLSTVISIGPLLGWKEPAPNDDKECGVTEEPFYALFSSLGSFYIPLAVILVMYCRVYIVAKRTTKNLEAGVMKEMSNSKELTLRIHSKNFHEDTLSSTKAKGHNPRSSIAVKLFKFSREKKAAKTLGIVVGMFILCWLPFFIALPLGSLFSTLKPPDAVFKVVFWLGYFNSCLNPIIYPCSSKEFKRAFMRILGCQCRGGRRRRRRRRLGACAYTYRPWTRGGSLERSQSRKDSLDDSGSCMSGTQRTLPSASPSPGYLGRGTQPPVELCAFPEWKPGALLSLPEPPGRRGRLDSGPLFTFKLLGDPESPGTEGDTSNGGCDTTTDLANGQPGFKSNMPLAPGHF", "experiment": "Inhibition of rat adrenergic alpha1B receptor at 10 uM relative to control"}, "[17]": {"target": "NAD-dependent protein deacetylase sirtuin-2 (Homo sapiens) (UniProt Q8IXJ6)", "sequence (Q8IXJ6 whole entry)": "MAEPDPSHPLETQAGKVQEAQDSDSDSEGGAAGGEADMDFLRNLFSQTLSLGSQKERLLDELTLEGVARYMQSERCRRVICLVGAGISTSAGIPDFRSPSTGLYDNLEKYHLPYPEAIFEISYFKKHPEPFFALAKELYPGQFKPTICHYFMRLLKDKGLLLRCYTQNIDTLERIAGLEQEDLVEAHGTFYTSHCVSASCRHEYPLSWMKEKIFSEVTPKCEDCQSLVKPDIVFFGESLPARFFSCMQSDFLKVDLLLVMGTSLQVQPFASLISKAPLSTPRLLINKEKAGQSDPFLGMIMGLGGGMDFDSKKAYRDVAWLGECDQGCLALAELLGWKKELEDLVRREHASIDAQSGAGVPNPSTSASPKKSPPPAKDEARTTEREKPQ", "experiment": "Inhibition of human Sirtuin2 at 10 uM relative to control"}, "[18]": {"target": "Histone deacetylase 4 (Homo sapiens) (UniProt P56524)", "experiment": "Inhibition of human HDAC4 at 10 uM relative to control"}, "[19]": {"target": "Beta-2 adrenergic receptor (Homo sapiens) (UniProt P07550)", "experiment": "Inhibition of human adrenergic beta2 receptor at 10 uM relative to control"}, "[20]": {"target": "Transcription factor SOX-17 (Homo sapiens) (UniProt Q9H6I2)", "sequence (Q9H6I2 whole entry)": "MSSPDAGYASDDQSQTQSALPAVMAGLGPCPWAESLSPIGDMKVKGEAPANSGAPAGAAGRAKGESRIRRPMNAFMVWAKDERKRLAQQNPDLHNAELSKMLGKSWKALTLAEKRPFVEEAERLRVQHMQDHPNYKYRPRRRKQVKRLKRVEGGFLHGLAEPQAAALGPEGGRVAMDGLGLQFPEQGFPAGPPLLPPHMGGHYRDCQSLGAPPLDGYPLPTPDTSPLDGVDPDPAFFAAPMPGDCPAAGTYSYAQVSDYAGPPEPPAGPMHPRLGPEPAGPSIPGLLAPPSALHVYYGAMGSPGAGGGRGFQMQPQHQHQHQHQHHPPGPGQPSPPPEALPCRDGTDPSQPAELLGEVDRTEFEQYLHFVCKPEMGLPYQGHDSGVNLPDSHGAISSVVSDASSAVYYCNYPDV", "experiment": "Inhibition of SOX17 (unknown origin) expressed in African green monkey COS7 cells assessed as reduction in SOX17 transcriptional activity at", "assay_type": "cell-based"}, "[21]": {"target": "Transcription factor SOX-9 (Homo sapiens) (UniProt P48436)", "sequence (P48436 whole entry)": "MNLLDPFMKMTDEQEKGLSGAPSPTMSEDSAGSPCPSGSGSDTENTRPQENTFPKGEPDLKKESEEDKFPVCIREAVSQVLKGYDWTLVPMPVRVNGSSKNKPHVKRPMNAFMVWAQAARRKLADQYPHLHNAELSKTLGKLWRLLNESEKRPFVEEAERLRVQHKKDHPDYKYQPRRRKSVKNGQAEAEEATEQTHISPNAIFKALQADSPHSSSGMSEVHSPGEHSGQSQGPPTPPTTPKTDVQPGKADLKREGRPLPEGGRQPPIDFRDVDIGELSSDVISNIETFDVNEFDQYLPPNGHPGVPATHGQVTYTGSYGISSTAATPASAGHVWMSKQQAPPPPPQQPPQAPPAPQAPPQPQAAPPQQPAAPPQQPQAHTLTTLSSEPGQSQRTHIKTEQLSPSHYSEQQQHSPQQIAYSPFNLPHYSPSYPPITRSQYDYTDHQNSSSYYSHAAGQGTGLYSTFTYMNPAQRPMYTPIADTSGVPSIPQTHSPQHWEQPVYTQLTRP", "experiment": "Inhibition of SOX9 (unknown origin) expressed in African green monkey COS7 cells assessed as reduction in SOX9 transcriptional activity at", "assay_type": "cell-based"}, "[22]": {"system": "Danio rerio", "experiment": "Induction of arterial and venous genes dys-regulation in zebrafish larvae harboring fli1 a:eGFP,-6.5kdrl:mCherry assessed as effect on hey2 gene expression at 1.5 uM dosed starting from 16 hpf and measured at 24 and 48 hpf by qRT-PCR analysis", "assay_type": "functional, organism-based"}, "[23]": {"system": "Danio rerio", "experiment": "Induction of arterial and venous genes dys-regulation in zebrafish larvae harboring fli1 a:eGFP,-6.5kdrl:mCherry assessed as effect on Ilk1 gene expression at 1.5 uM dosed starting from 16 hpf and measured at 24 and 48 hpf by qRT-PCR analysis", "assay_type": "functional, organism-based"}, "[24]": {"system": "4T1.2", "experiment": "Antitumor activity against mouse 4T1.2 cells implanted in BALB/c mouse assessed as effect on tumor size at 25 mg/kg/day for 10 days", "assay_type": "functional, organism-based"}, "[25]": {"target": "Sigma non-opioid intracellular receptor 1 (Homo sapiens) (UniProt Q99720)", "experiment": "Inhibition of human sigma1 receptor at 10 uM relative to control"}, "[26]": {"target": "Glutamate NMDA receptor (Rattus norvegicus) (UniProt P35439+Q00959+Q00960+Q00961+Q62645+Q8VHN2+Q9R1M7)", "experiment": "Inhibition of rat NMDA glutamate receptor at 10 uM relative to control", "assay_type": "protein-complex assay"}, "[27]": {"target": "Endothelial transcription factor GATA-2 (Homo sapiens) (UniProt P23769)", "sequence (P23769 whole entry)": "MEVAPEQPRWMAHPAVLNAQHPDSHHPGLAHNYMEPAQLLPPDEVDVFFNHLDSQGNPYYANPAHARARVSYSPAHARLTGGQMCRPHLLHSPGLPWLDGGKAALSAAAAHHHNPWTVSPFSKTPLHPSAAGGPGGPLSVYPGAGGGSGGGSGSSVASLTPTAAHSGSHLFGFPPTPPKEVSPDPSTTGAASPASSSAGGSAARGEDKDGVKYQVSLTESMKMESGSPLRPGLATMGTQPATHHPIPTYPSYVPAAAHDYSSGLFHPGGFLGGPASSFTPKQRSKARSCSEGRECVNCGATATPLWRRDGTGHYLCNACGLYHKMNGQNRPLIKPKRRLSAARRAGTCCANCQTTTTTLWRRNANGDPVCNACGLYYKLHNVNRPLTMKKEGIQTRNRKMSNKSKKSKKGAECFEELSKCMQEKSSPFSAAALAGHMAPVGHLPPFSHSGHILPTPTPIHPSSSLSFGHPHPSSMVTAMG", "experiment": "Inhibition of GATA2 in HUVEC assessed as reduction of GATA2 transcriptional activity by genome-wide RNA-seq and ChlP-seq analysis", "assay_type": "cell-based"}, "[28]": {"target": "Beta-1 adrenergic receptor (Homo sapiens) (UniProt P08588)", "experiment": "Inhibition of human adrenergic beta1 receptor at 10 uM relative to control"}, "[29]": {"system": "4T1.2", "experiment": "Antitumor activity against mouse 4T1.2 cells implanted in BALB/c mouse assessed as median disease latency time at 25 mg/kg/day for 10 days (Rvb =33 days)", "assay_type": "functional"}, "[30]": {"target": "Cannabinoid receptor 1 (Homo sapiens) (UniProt P21554)", "experiment": "Inhibition of human CB1 receptor at 10 uM relative to control"}, "[31]": {"target": "Histone deacetylase 3 (Homo sapiens) (UniProt O15379)", "sequence (O15379 whole entry)": "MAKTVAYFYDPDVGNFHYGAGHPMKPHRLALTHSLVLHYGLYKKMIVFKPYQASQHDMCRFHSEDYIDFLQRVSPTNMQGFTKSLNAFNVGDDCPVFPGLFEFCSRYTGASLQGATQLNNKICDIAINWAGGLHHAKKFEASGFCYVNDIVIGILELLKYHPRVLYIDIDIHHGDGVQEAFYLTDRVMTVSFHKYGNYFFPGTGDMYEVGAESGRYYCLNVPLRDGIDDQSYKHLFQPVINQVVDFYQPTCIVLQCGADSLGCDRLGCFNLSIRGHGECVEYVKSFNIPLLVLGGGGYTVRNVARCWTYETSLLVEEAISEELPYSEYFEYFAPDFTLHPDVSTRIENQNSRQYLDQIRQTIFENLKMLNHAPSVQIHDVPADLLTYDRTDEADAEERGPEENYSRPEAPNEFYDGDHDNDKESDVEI", "experiment": "Inhibition of human HDAC3 at 10 uM relative to control"}, "[32]": {"system": "4T1.2", "experiment": "Antitumor activity against mouse 4T1.2 cells implanted in BALB/c mouse assessed as median disease latency time at 50 mg/kg/day for 10 days (Rvb =40 days)", "assay_type": "functional"}, "[33]": {"experiment": "Plasma concentration in BALB/c mouse xenografted with mouse 4T1.2 cells at 25 mg/kg/day for 10 days measured at day 12", "assay_type": "ADME, organism-based"}, "[34]": {"target": "Alpha-2A adrenergic receptor (Homo sapiens) (UniProt P08913)", "sequence (P08913 whole entry)": "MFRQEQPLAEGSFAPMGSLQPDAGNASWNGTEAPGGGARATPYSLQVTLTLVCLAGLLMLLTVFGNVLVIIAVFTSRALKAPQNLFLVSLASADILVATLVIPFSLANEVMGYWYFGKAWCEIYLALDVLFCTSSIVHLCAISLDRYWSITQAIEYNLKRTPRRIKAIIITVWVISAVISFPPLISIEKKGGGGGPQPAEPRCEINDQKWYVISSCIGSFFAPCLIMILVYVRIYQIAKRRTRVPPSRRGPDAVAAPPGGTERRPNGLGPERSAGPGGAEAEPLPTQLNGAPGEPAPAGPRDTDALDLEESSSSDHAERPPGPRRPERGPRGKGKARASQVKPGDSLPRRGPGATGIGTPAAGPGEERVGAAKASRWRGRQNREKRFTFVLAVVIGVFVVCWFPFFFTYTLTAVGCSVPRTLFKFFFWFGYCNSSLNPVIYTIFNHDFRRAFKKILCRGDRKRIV", "experiment": "Inhibition of human adrenergic alpha2A receptor at 10 uM relative to control"}, "[35]": {"system": "Danio rerio", "experiment": "Induction of arterial and venous genes dys-regulation in zebrafish larvae harboring fli1 a:eGFP,-6.5kdrl:mCherry assessed as effect on mCherry gene expression at 1.5 uM dosed starting from 16 hpf and measured at 24 and 48 hpf by qRT-PCR analysis", "assay_type": "functional, organism-based"}}, "note": "Active and inactive are the calls of the source. The calls are words filed in the database; no cut-off is given here.", "data": [{"smiles": "O=C(O)c1c(O)cccc1CCc1ccc2ccccc2c1", "values": [{"measurement": "inhibition", "setting": "[1]", "result": 30, "unit": "%"}, {"measurement": "inhibition", "setting": "[2]", "result": -4, "unit": "%"}, {"measurement": "Activity", "setting": "[3]", "result": 67, "unit": "%"}, {"measurement": "inhibition", "setting": "[4]", "result": 6, "unit": "%"}, {"measurement": "inhibition at 10 µM", "setting": "[5]", "result": -8, "unit": "%"}, {"measurement": "inhibition", "setting": "[6]", "result": 0, "unit": "%"}, {"measurement": "inhibition", "setting": "[7]", "result": "inactive"}, {"measurement": "Activity", "setting": "[8]", "result": "inactive"}, {"measurement": "inhibition", "setting": "[9]", "result": "inactive"}, {"measurement": "Activity", "setting": "[10]", "result": "Dose-dependent effect"}, {"measurement": "inhibition", "setting": "[11]", "result": 36, "unit": "%"}, {"measurement": "inhibition in vivo at 25 mg/kg/day", "setting": "[12]", "result": 48, "unit": "%"}, {"measurement": "CMC", "setting": "[13]", "result": "> 1000", "unit": "µM"}, {"measurement": "inhibition at 10 µM", "setting": "[14]", "result": -14, "unit": "%"}, {"measurement": "inhibition", "setting": "[15]", "result": "inactive"}, {"measurement": "inhibition", "setting": "[16]", "result": -1, "unit": "%"}, {"measurement": "inhibition", "setting": "[17]", "result": -5.2, "unit": "%"}, {"measurement": "inhibition", "setting": "[18]", "result": 5.1, "unit": "%"}, {"measurement": "inhibition", "setting": "[19]", "result": 2, "unit": "%"}, {"measurement": "inhibition", "setting": "[20]", "result": "inactive"}, {"measurement": "inhibition", "setting": "[21]", "result": "inactive"}, {"measurement": "Activity", "setting": "[22]", "result": "Active"}, {"measurement": "Activity", "setting": "[23]", "result": "Active"}, {"measurement": "Activity", "setting": "[24]", "result": "inactive"}, {"measurement": "inhibition", "setting": "[25]", "result": -6, "unit": "%"}, {"measurement": "inhibition", "setting": "[26]", "result": -5, "unit": "%"}, {"measurement": "inhibition", "setting": "[27]", "result": "inactive"}, {"measurement": "inhibition", "setting": "[28]", "result": 6, "unit": "%"}, {"measurement": "Time", "setting": "[29]", "result": 33, "unit": "days"}, {"measurement": "inhibition", "setting": "[30]", "result": 3, "unit": "%"}, {"measurement": "inhibition", "setting": "[31]", "result": -4.8, "unit": "%"}, {"measurement": "Time", "setting": "[32]", "result": 73, "unit": "days"}, {"measurement": "concentration at 240 h", "setting": "[33]", "result": 55.2, "unit": "µg/mL"}, {"measurement": "inhibition", "setting": "[34]", "result": 0, "unit": "%"}, {"measurement": "Activity", "setting": "[35]", "result": "Active"}]}]}
